{"source": "patent US11026906B2", "about": "(priority 2016, dated 2021)", "key": {"[1]": {"conditions": "in vivo; cited from earlier work"}, "[2]": {"experiment": "Stability of the compositions (storage, light, heating under vacuum)"}, "[3]": {"conditions": "for Area under the curve (AUC0-∞), Mean / Half-life (T1/2), Mean / Oral Bioavailability, Mean / Rate of elimination (K), Mean / Maximum serum concentration (Cmax), Mean: 10 subjects; for Maximum serum concentration (Cmax), Mean: fasted", "excerpt": "The study was approved by an Institutional Review Board. […] Each provided informed consent to participate in the study.\n(§1) On the day of dose administration, the subjects arrived at the clinic fasted. Their qualifications for enrollment were reviewed to ensure compliance. Immediately prior to administration of the test article, an indwelling venous catheter was placed and a blood sample was withdrawn into a trace metal-free tube (the t=0 sample). […] After drinking the test article solution, fasting continued for 2 hours. During the day, however, subjects were provided usual and customary meals. Potential adverse events were monitored.\nEach blood sample was stored appropriately until all samples had been collected for the day. Then the blood samples were centrifuged to separate the serum, and each serum sample was transferred into two trace metal-free vials. The vials were shipped to an independent analytical laboratory for serum strontium analyses.\nas §1, with “One week later, on the day” for “On the day”, “administration, the same subjects arrived” for “administration, the subjects arrived”"}, "[4]": {"system": "subjects with femoral neck BMD less than 0.600 g/cm^2", "experiment": "Double-blind clinical study, non-vertebral fractures over 3 year follow-up (expected results)", "conditions": "200 mg strontium daily vs placebo", "quoted_text": "In a double-blind clinical study, 80 subjects are divided into two groups (n=40). The control group receives a daily supplement containing 1.8 g of sodium L-lactate (placebo). […] All non-vertebral fractures will be recorded with the exception of the coccyx, skull, jaw, face, phalanx (fingers and toes) and ankle, since these latter are not regarded as being related to osteoporosis."}, "[5]": {"system": "subject with osteonecrosis of the jaw and osteoarthritis", "experiment": "Efficacy study in one subject: daily oral strontium L-lactate", "type": "in vivo, human", "method": "Likewise, today there are no effective treatments for osteonecrosis of the jaw caused by lengthy use of bone resorption inhibitors (anti-resorptives). […] The test subject experienced deterioration of the jawbone sufficient to loosen their teeth and cause pain when chewing. They received a 200 mg dose of strontium as the L-lactate each day, taken separately from food. […] Over a 3-month period, the subject receiving this treatment experienced a restoration of the jawbone sufficient to set the teeth more firmly and reduce the pain associated with chewing. […] The benefits were so remarkable that the subject continued treatment for at least 8 months, with continuing resolution of the bone and cartilage defects.\nA subject suffered from latent osteonecrosis of the jaw as a result of several years of alendronate treatment for osteoporosis. In addition to loose teeth and jaw pain during chewing due to the osteonecrosis, they suffered from osteoarthritis. Their dentist advised them that the necrosis was so serious they would lose several teeth and might have to change from a normal diet to a soft-food diet. Their arthritis was so severe that they had to give up crocheting and knitting, hobbies they had enjoyed for many years. […] They requested access to strontium L-lactate of the present invention. […] Their treatment continued for 8 months with similar improvements."}, "[6]": {"conditions": "daily doses of 0.3-0.6 grams; cited from earlier work"}, "[7]": {"system": "men and women having low bone mass", "conditions": "cited from earlier work"}, "[8]": {"conditions": "about 200 mg strontium per day orally, after 3 months"}}, "note": "“Also recorded” adds a separate entry of the source. Read-outs that look alike come from different tables or passages of the source.", "data": [{"smiles": "C[C@@H](O)C(=O)O", "note": "[D-lactate]", "values": [{"measurement": "blood concentration causing acidosis and encephalopathies", "setting": "[1]", "result": "≥ 3000", "unit": "µM"}]}, {"smiles": "C[C@H](O)C(=O)[O-].C[C@H](O)C(=O)[O-].O.O.O.[Sr+2]", "note": "[strontium L-lactate trihydrate]", "values": [{"measurement": "stability on exposure to light", "setting": "[2]", "result": "stable"}, {"measurement": "stability during storage", "setting": "[2]; 25° C./60% relative humidity", "result": "stable"}, {"measurement": "racemization on heating", "setting": "[2]; solid heated under vacuum, about 100° C. to about 130° C.", "result": "No racemization"}]}, {"smiles": "C[C@H](O)C(=O)[O-].C[C@H](O)C(=O)[O-].[Sr+2]", "note": "[strontium L-lactate]", "values": [{"measurement": "average serum concentration of strontium compared with strontium ranelate", "setting": "[3]; 170 mg dose of strontium as L-lactate vs 680 mg dose of strontium as ranelate (U.S. Pat. No. 7,595,342)", "result": "approximately equaled the serum concentration of strontium achieved by ingesting a 680 mg dose of strontium as the ranelate; also recorded: approximately equal to the serum concentrations of strontium provided by 680 mg of water-insoluble strontium ranelate"}, {"measurement": "time at which average serum strontium concentration reached a maximum", "setting": "[3]; after ingesting a solution of strontium L-lactate in water", "result": "about 3 hr"}, {"measurement": "adverse effects", "setting": "[3]; after ingesting any of three escalating doses (170, 340, 680 mg strontium)", "result": "no adverse effects"}, {"measurement": "Area under the curve (AUC0-∞), Mean", "setting": "[3]; oral dose 170 mg strontium", "result": 47.8, "unit": "mg Sr/L · h"}, {"measurement": "Half-life (T1/2), Mean", "setting": "[3]; oral dose 170 mg strontium", "result": 12.3}, {"measurement": "Oral Bioavailability, Mean", "setting": "[3]; oral dose 170 mg strontium", "result": 0.94}, {"measurement": "Rate of elimination (K), Mean", "setting": "[3]; oral dose 170 mg strontium", "result": 0.06, "unit": "h⁻¹"}, {"measurement": "Area under the curve (AUC0-∞), Mean", "setting": "[3]; oral dose 340 mg strontium", "result": 115.6, "unit": "mg Sr/L · h"}, {"measurement": "Half-life (T1/2), Mean", "setting": "[3]; oral dose 340 mg strontium", "result": 12.1}, {"measurement": "Oral Bioavailability, Mean", "setting": "[3]; oral dose 340 mg strontium", "result": 0.93}, {"measurement": "Rate of elimination (K), Mean", "setting": "[3]; oral dose 340 mg strontium", "result": 0.06, "unit": "h⁻¹"}, {"measurement": "Area under the curve (AUC0-∞), Mean", "setting": "[3]; oral dose 680 mg strontium", "result": 185.0, "unit": "mg Sr/L · h"}, {"measurement": "Half-life (T1/2), Mean", "setting": "[3]; oral dose 680 mg strontium", "result": 14.0}, {"measurement": "Oral Bioavailability, Mean", "setting": "[3]; oral dose 680 mg strontium", "result": 0.94}, {"measurement": "Rate of elimination (K), Mean", "setting": "[3]; oral dose 680 mg strontium", "result": 0.05, "unit": "h⁻¹"}, {"measurement": "Maximum serum concentration (Cmax), Mean", "setting": "[3]; single oral dose 340 mg strontium as strontium L-lactate in 100 mL water", "result": 6.3, "unit": "mg Sr/L"}, {"measurement": "Maximum serum concentration (Cmax), Mean", "setting": "[3]; single oral dose 680 mg strontium as strontium L-lactate in 100 mL water", "result": 9.3, "unit": "mg Sr/L"}, {"measurement": "non-vertebral fractures", "setting": "[4]", "result": "significant reduction in all non-vertebral fractures"}, {"measurement": "side effects", "setting": "[5]; 200 mg strontium per day, at least 8 months", "result": "no side effects"}, {"measurement": "osteoarthritis: stiffness, pain, flexibility of hands", "setting": "[5]; [8]", "result": "increased flexibility of osteoarthritic hands and fingers; also recorded: the stiffness and pain of their osteoarthritis had significantly abated"}, {"measurement": "osteonecrosis of the jaw: teeth setting and pain when chewing", "setting": "[5]; [8]", "result": "reduced the injury and pain associated with osteonecrosis of the jaw; also recorded: their teeth were more set in their jawbone and that they experienced less pain when chewing"}]}, {"smiles": "CC(O)C(=O)[O-].CC(O)C(=O)[O-].[Sr+2]", "note": "(centres unmarked) [strontium lactate]", "values": [{"measurement": "albumin in the urine", "setting": "[6]", "result": "decrease albumin in the urine"}]}, {"smiles": "N#Cc1c(N(CC(=O)[O-])CC(=O)[O-])sc(C(=O)[O-])c1CC(=O)[O-].[Sr+2].[Sr+2]", "note": "[strontium ranelate]", "values": [{"measurement": "incidence of fractures", "setting": "[7]; daily dose of 2 grams (680 mg strontium), almost a decade of clinical use", "result": "significantly reduced incidence of fractures"}, {"measurement": "side effects of therapeutic doses of the strontium ion", "setting": "[7]; human exposure", "result": "does not cause gastric irritation, esophageal cancer, colon cancer, or osteonecrosis of the jaw"}]}, {"smiles": "O=C([O-])CCC(=O)[O-].[Sr+2]", "note": "[strontium succinate]", "values": [{"measurement": "benefit in treating osteoporosis", "setting": "[7]; daily dose of 1.7 grams (680 mg strontium)", "result": "highly beneficial in treating osteoporosis"}]}]}
